Test results published in PubChem BioAssay AID338 (DTP/NCI, 2004).
“And” between values parts separate entries of the source, which are not always exact repeats. Equal entries are not always repeated. Toxic doses and inconclusive results are not listed.

System: BDF1 mice, P388 leukemia (terephthalanilide-resistant), survival T/C
Assay: NCI In Vivo Anticancer Drug Screen. Data for tumor model P388 Leukemia resistant to A Terephthalanilide; NSC 38280 (intraperitoneal) in B6D2F1 (BDF1) mice
Settings: endpoint: median survival time, schedule: Q01DX010 (ip), higher = longer survival
Experimental: The antitumor activity of compounds was measured in mice bearing transplantable tumors. Survival or tumor size were measured and the results are expressed as the measurement made in the treated group (T) divided by the measurement made in the vehicle treated control group (C). The tumor model used in this assay is P388 Leukemia resistant to A Terephthalanilide; NSC 38280 (intraperitoneal) in B6D2F1 (BDF1) mice

[1] = dose: 25.0 mg/kg/injection, vehicle: saline
[2] = dose: 100.0 mg/kg/injection, vehicle: saline
[3] = dose: 1.25 mg/kg/injection, vehicle: saline
[4] = dose: 2.5 mg/kg/injection, vehicle: saline
[5] = dose: 5.0 mg/kg/injection, vehicle: saline
[6] = dose: 10.0 mg/kg/injection, vehicle: saline
[7] = dose: 27.0 mg/kg/injection, vehicle: saline
[8] = dose: 40.0 mg/kg/injection, vehicle: saline
[9] = dose: 90.0 mg/kg/injection, vehicle: saline

CN[C@H]1CCc2cc(OC)c(OC)c(OC)c2-c2ccc(OC)c(=O)cc21
T/C (dose: 0.63 mg/kg/injection, vehicle: other): 94 % of control and 110 % of control
T/C (dose: 1.25 mg/kg/injection, vehicle: other): 100 % of control and 110 % of control
T/C (dose: 2.5 mg/kg/injection, vehicle: other): 100 % of control and 120 % of control
T/C (dose: 5.0 mg/kg/injection, vehicle: other): 88 % of control and 115 % of control

CSc1ncnc2nc[nH]c12
T/C [1]: 104 % of control and 105 % of control
T/C (dose: 50.0 mg/kg/injection, vehicle: saline): 100 % of control and 104 % of control
T/C [2]: 100 % of control
T/C (dose: 200.0 mg/kg/injection, vehicle: saline): 105 % of control and 109 % of control

CCCCn1cnc2c(=S)nc[nH]c21
T/C (dose: 16.0 mg/kg/injection, vehicle: saline): 86 % of control
T/C (dose: 32.0 mg/kg/injection, vehicle: saline): 90 % of control

Oc1cc(CN(CCCl)CCCl)c(O)cc1CN(CCCl)CCCl
T/C (dose: 0.63 mg/kg/injection, vehicle: saline): 116 % of control
T/C [3]: 100 % of control and 116 % of control
T/C [4]: 100 % of control and 116 % of control
T/C [5]: 100 % of control and 116 % of control
T/C [6]: 110 % of control

CN(N=O)C(N)=O
T/C [5]: 113 % of control
T/C (dose: 20.0 mg/kg/injection, vehicle: saline): 118 % of control

CN(C)c1nc(N(C)C)nc(N(C)C)n1
T/C (dose: 18.8 mg/kg/injection, vehicle: saline): 100 % of control and 116 % of control
T/C (dose: 37.5 mg/kg/injection, vehicle: saline): 100 % of control and 105 % of control
T/C (dose: 75.0 mg/kg/injection, vehicle: saline): 100 % of control and 111 % of control
T/C (dose: 150.0 mg/kg/injection, vehicle: saline): 100 % of control and 105 % of control

O=C(Nc1ccc(NC2=NCCN2)cc1)c1ccc(C(=O)Nc2ccc(NC3=NCCN3)cc2)cc1
T/C (dose: 2.0 mg/kg/injection, vehicle: saline): 100 % of control and 106 % of control
T/C (dose: 4.0 mg/kg/injection, vehicle: saline): 150 % of control
T/C (dose: 8.0 mg/kg/injection, vehicle: saline): 181 % of control

CCOC(=O)NP(=O)(N1CC1(C)C)N1CC1(C)C (centres undefined)
T/C (dose: 31.3 mg/kg/injection, vehicle: saline): 110 % of control
T/C (dose: 62.5 mg/kg/injection, vehicle: saline): 160 % of control
T/C (dose: 125.0 mg/kg/injection, vehicle: saline): 190 % of control
T/C (dose: 250.0 mg/kg/injection, vehicle: saline): 160 % of control

O=NN(CCCl)C(=O)NCCCl
T/C (dose: 6.25 mg/kg/injection, vehicle: saline): 225 % of control and 245 % of control
T/C (dose: 12.5 mg/kg/injection, vehicle: saline): 215 % of control and 300 % of control
T/C [1]: 110 % of control

CCN(CC)CCNc1ccc(C)c2sc3ccccc3c(=O)c12
T/C [1]: 105 % of control and 122 % of control
T/C [2]: 100 % of control

CN(N=O)C(=O)NC(C=O)C(O)C(O)C(O)CO (centres undefined)
T/C [7]: 109 % of control
T/C [8]: 113 % of control
T/C (dose: 60.0 mg/kg/injection, vehicle: saline): 154 % of control
T/C [9]: 113 % of control

O=C(Nc1cccc(NC(=O)Nc2cccc(C3=NCCN3)c2)c1)Nc1cccc(C2=NCCN2)c1
T/C [7]: 111 % of control
T/C [8]: 111 % of control
T/C (dose: 66.0 mg/kg/injection, vehicle: saline): 111 % of control
T/C [9]: 111 % of control

Nc1nc(=S)c2[nH]cnc2[nH]1
T/C [3]: 162 % of control
T/C [4]: 150 % of control and 175 % of control
T/C [6]: 112 % of control
